Laboratory results: patent US20220160617A1, “COMPOSITIONS AND METHODS FOR IMPROVING SKIN HEALTH AND FOR THE TREATMENT AND PREVENTION OF DISEASES, DISORDERS AND CONDITIONS ASSOCIATED WITH PATHOGENIC MICROBES” (DermBiont, Inc., priority 2019, published 2022)
Read-outs that look alike come from different tables or passages of the source. Where a SMILES comes first, the peptide text is derived from it. Bridges are numbered along the chain shown (N, C = ends). [ ]: non-standard residue; d: D form. The star is where a group is joined. Ileψ(thiazoline)Cys = CC[C@H](C)[C@H](N)C1=N[C@H](C(=O)*)CS1; dOrn = NCCC[C@@H](N)C(=O)O

What was measured:
[1] = tested on: fungal or bacterial pathogens; format: cell-based
E. Coli ATCC25922 = conditions: cited from earlier work
[2] = tested on: Janthinobacterium lividum strains; assay: Internal antibiotic resistance test (BD BBL Sensi-Disc zone of inhibition); format: cell-based; conditions: all 5 strains; disc content per antibiotic
Method: One Janthinobacterium lividum colony of 3-day old grown in 50% BHI agar was mixed well in 1 ml of 1×PBS buffer, diluted 10× and 100×, respectively. 200 μl of diluted Janthinobacterium lividum cells were evenly plated onto R2A/BHI agar plates in triplicate in 150 mm petri dishes. Antibiotic discs (BD BBL Sensi-Disc antimicrobial susceptibility test discs) were dispensed using a Disc dispenser (BD BBL Sensi-Disc Designer Dispenser System, 12-Place). Plates were incubated for 2-3 days at room temperature and imaged at the end of incubation.
The sensitivity of Janthinobacterium lividum to antibiotics is reflected by a clear zone of inhibition of Janthinobacterium lividum cells surrounding the antibiotic discs. The zone of inhibition was measured using ImageJ and was transformed into cm for analysis.

[3] = tested on: Janthinobacterium lividum strains; assay: Antibiotic MIC tests, sensitivity summary; format: cell-based
Method: The antibiotic resistance profile and MICs tests were performed using Janthinobacterium lividum grown from cultures purified and grown in vegitone LB broth.

[4] = components for enhancing function of human-derived Janthinobacterium lividum

Row | Molecule | Concentration Range of Efficacy [1, 4] [mM] | also measured
1 | CC(O)CO (centres unmarked) [1,2-Propanediol] | 2 to 20 | –
2 | O=C(O)[C@@H](O)[C@H](O)C(=O)O [D-Tartaric acid] | 1 to 5 | –
3 | Glycogen | 1 to 5 | –
4 | OC[C@H]1O[C@@H]2O[C@H]3[C@H](O)[C@@H](O)[C@@H](O[C@H]4[C@H](O)[C@@H](O)[C@@H](O[C@H]5[C@H](O)[C@@H](O)[C@@H](O[C@H]6[C@H](O)[C@@H](O)[C@@H](O[C@H]7[C@H](O)[C@@H](O)[C@@H](O[C@H]8[C@H](O)[C@@H](O)[C@@H](O[C@H]9[C@H](O)[C@@H](O)[C@@H](O[C@H]1[C@H](O)[C@H]2O)O[C@@H]9CO)O[C@@H]8CO)O[C@@H]7CO)O[C@@H]6CO)O[C@@H]5CO)O[C@@H]4CO)O[C@@H]3CO [g-Cyclodextrin] | 1 to 5 | –
5 | OC[C@H]1O[C@H](OC[C@H]2O[C@H](OC[C@H]3O[C@H](O[C@]4(CO)O[C@H](CO)[C@@H](O)[C@@H]4O)[C@H](O)[C@@H](O)[C@@H]3O)[C@H](O)[C@@H](O)[C@H]2O)[C@H](O)[C@@H](O)[C@H]1O [Stachyose] | 1 to 5 | –
6 | CC(O)C(N)=O (racemic) [D,L-Lactamide] | 0.1 to 1 | –
7 | C[C@H](N)C(=O)N[C@@H](CCC(=O)O)C(=O)O [Ala-Glu] (H-Ala-Glu-OH) | 0.1 to 1 | –
8 | Pectin | 1 to 5 | –
9 | OC[C@H]1O[C@@](CO)(O[C@H]2O[C@H](CO)[C@@H](O)[C@H](O)[C@H]2O)[C@@H](O[C@H]2O[C@H](CO)[C@@H](O)[C@H](O)[C@H]2O)[C@@H]1O [D-Melezitose] | 1 to 5 | –
10 | O=C1CCC(C(=O)O)O1 (stereo not drawn) [α-Hydroxy Glutaric Acid-g-Lactone] | 2 to 20 | –
11 | NCC[C@H](O)C(=O)N[C@@H]1C[C@H](N)[C@@H](O[C@H]2O[C@H](CN)[C@@H](O)[C@H](O)[C@H]2O)[C@H](O)[C@H]1O[C@H]1O[C@H](CO)[C@@H](O)[C@H](N)[C@H]1O [Amikacin] | – | MIC, CLSI QC ranges (E. Coli ATCC25922): 0.5 to 4 µg/mL
12 | OC[C@H]1O[C@H](OCC2O[C@@H](O)[C@H](O)[C@@H](O)[C@@H]2O)[C@H](O)[C@@H](O)[C@H]1O (stereo partly drawn) [D-Melibiose] | 2 to 20 | –
13 | O=C(O)c1cn(C2CC2)c2cc(N3CCNCC3)c(F)cc2c1=O [Ciprofloxacin] | – | sensitivity of Janthinobacterium lividum to antibiotic disc [2]: sensitive
14 | [H]/N=C(/N)N[C@H]1[C@H](O)[C@@H](O)[C@H](O[C@@H]2O[C@@H](C)[C@](O)(C=O)[C@H]2O[C@@H]2O[C@@H](CO)[C@H](O)[C@@H](O)[C@@H]2NC)[C@@H](N/C(N)=N\[H])[C@@H]1O [streptomycin] | – | sensitivity of Janthinobacterium lividum to antibiotic disc [2]: sensitive
15 | OC[C@H]1O[C@H](OC[C@H]2OC(O)(CO)[C@@H](O)[C@@H]2O)[C@H](O)[C@@H](O)[C@@H]1O (some centres unmarked) [Palatinose] | 1 to 5 | –
16 | O=C(CO)[C@@H](O[C@H]1O[C@H](CO)[C@@H](O)[C@H](O)[C@H]1O)[C@H](O)[C@H](O)CO [Turanose] | 1 to 5 | –
17 | COC1OC(CO)C(O)C(O)C1O [α-Methyl-D-Mannoside] | 1 to 5 | –
18 | CO/N=C(\C(=O)N[C@@H]1C(=O)N2C(C(=O)O)=C(CSc3nc(=O)c(=O)[nH]n3C)CS[C@H]12)c1csc(N)n1 [Ceftriaxone] | – | MIC, CLSI QC ranges (E. Coli ATCC25922): 0.03 to 0.12 µg/mL
19 | NC(N)=O [Urea] | 0.1 to 1 | –

Row | Molecule | Concentration Range of Efficacy [1, 4] [mM] | also measured
20 | OC[C@H]1O[C@@H](O[C@H]2[C@H](O)[C@@H](O)[C@H](O)O[C@@H]2CO)[C@H](O)[C@@H](O)[C@@H]1O [D-Cellobiose] | 2 to 20 | –
21 | OC[C@H]1O[C@@H]2O[C@H]3[C@H](O)[C@@H](O)[C@@H](O[C@H]4[C@H](O)[C@@H](O)[C@@H](O[C@H]5[C@H](O)[C@@H](O)[C@@H](O[C@H]6[C@H](O)[C@@H](O)[C@@H](O[C@H]7[C@H](O)[C@@H](O)[C@@H](O[C@H]1[C@H](O)[C@H]2O)O[C@@H]7CO)O[C@@H]6CO)O[C@@H]5CO)O[C@@H]4CO)O[C@@H]3CO [α-Cyclodextrin] | 1 to 5 | –
22 | O=C[C@@H](O)[C@H](O[C@@H]1O[C@H](CO)[C@H](O)[C@H](O)[C@H]1O)[C@H](O)CO [3-0-β-D-Galactopyranosyl-D Arabinose] | 1 to 5 | –
23 | O=C(O)[C@H](O)[C@@H](O)C(=O)O [L-Tartaric acid] | 1 to 5 | –
24 | OC[C@@H](O)[C@@H](O[C@H]1O[C@H](CO)[C@@H](O)[C@H](O)[C@H]1O)[C@H](O)[C@@H](O)CO [Maltitol] | 1 to 5 | –
25 | Mannan | 1 to 5 | –
26 | penicillin | – | sensitivity of Janthinobacterium lividum to antibiotic disc [2]: sensitive
27 | OC[C@H](O)C(O)[C@@H](O)CO [L-Arabitol] | 1 to 5 | –
28 | O=C(O)[C@H]1OC(O)[C@H](O)[C@@H](O)[C@@H]1O (stereo partly drawn) [D-Glucoronic Acid] | 2 to 20 | –
29 | OC[C@@]12OC[C@@H](O1)[C@@H](O)[C@@H](O)[C@@H]2O [Sedoheptulosan] | 1 to 5 | –
30 | O=[N+]([O-])O [Nitrate] | – | Concentration Range of Efficacy [1]: 0.1 to 1 mM
31 | CC[C@H]1OC(=O)[C@H](C)[C@@H](O[C@H]2C[C@@](C)(OC)[C@@H](O)[C@H](C)O2)[C@H](C)[C@@H](O[C@@H]2O[C@H](C)C[C@H](N(C)C)[C@H]2O)[C@](C)(O)C[C@@H](C)C(=O)[C@H](C)[C@@H](O)[C@]1(C)O [Erythromycin] | – | sensitivity of Janthinobacterium lividum to antibiotic disc [2]: sensitive
32 | Inulin | 1 to 5 | –
33 | OC[C@@H](O)[C@H](O)[C@H](O)[C@@H](O)CO [Dulcitol] | 2 to 20 | –
34 | CC[C@H](C)[C@H](N)C1=N[C@H](C(=O)N[C@@H](CC(C)C)C(=O)N[C@H](CCC(=O)O)C(=O)N[C@H](C(=O)N[C@H]2CCCCNC(=O)[C@H](CC(N)=O)NC(=O)[C@@H](CC(=O)O)NC(=O)[C@H](Cc3cnc[nH]3)NC(=O)[C@@H](Cc3ccccc3)NC(=O)[C@H]([C@@H](C)CC)NC(=O)[C@@H](CCCN)NC2=O)[C@@H](C)CC)CS1 [Bacitracin] ({Ileψ(thiazoline)Cys}-L[dE]IK[dOrn]I[dF]H[dD]N; lactam 4-C) | – | sensitivity of Janthinobacterium lividum strains to antibiotic [3]: resistant
35 | CO[C@@H]1O[C@H](CO)[C@@H](O)[C@H](O)[C@H]1O [β-Methyl-D-Galactoside] | 1 to 5 | –
36 | CO[C@@H]1O[C@H](C(=O)O)[C@@H](O)[C@H](O)[C@H]1O [β-Methyl-D-Glucuronic Acid] | 1 to 5 | –
37 | Laminarin | 1 to 5 | –
38 | O=CC[C@H](O)[C@H](O)CO [2-Deoxy-DRibose] | 1 to 5 | –

Row | Molecule | Concentration Range of Efficacy [1, 4] [mM] | also measured
39 | CC1(C)S[C@@H]2[C@H](NC(=O)[C@H](N)c3ccccc3)C(=O)N2[C@H]1C(=O)O [ampicillin] | – | sensitivity of Janthinobacterium lividum to antibiotic disc [2]: sensitive
40 | N[C@@H](C(=O)O)[C@@H](O)[C@H](O)[C@H](O)CO [D-Glucosaminic Acid] | 2 to 20 | –
41 | Chondroitin Sulfate C | 1 to 5 | –
42 | Maltotriose | 2 to 20 | –
43 | CN[C@H](CC(C)C)C(=O)N[C@H]1C(=O)N[C@@H](CC(N)=O)C(=O)N[C@H]2C(=O)N[C@H]3C(=O)N[C@H](C(=O)N[C@H](C(=O)O)c4cc(O)cc(O)c4-c4cc3ccc4O)[C@H](O)c3ccc(c(Cl)c3)Oc3cc2cc(c3O[C@@H]2O[C@H](CO)[C@@H](O)[C@H](O)[C@H]2O[C@H]2C[C@](C)(N)[C@H](O)[C@H](C)O2)Oc2ccc(cc2Cl)[C@H]1O [vancomycin] | – | sensitivity of Janthinobacterium lividum to antibiotic disc [2]: sensitive
44 | OC[C@@H](O)C(O)[C@H](O)CO [D-Arabitol] | 1 to 5 | –
45 | CO[C@@H]1O[C@H](CO)[C@@H](O)[C@H](O)[C@H]1O [β-Methyl-D-Glucoside] | 2 to 20 | –
46 | COC1OC(CO)C(O)C(O)C1O [α-Methyl-D-Galactoside] | 2 to 20 | –
47 | O=NO [Nitrite] | – | Concentration Range of Efficacy [1]: 0.1 to 1 mM
48 | CO[C@H]1O[C@H](CO)[C@@H](O)[C@H](O)[C@H]1O [α-Methyl-D-Glucoside] | 1 to 5 | –
49 | COC1OCC(O)C(O)C1O [β-Methyl-D-Xyloside] | 1 to 5 | –
50 | O=P(O)(O)OCC(O)CO (racemic) [D,L-α-Glycerol Phosphate] | 2 to 20 | –
51 | OC[C@@H](O)[C@@H](O)CO [i-Erythritol] | 1 to 5 | –
52 | O=P(O)(O)O[C@H]1O[C@H](CO)[C@@H](O)[C@H](O)[C@H]1O [D-Glucose-1-Phosphate] | 2 to 20 | –
53 | dextrin | 1 to 5 | –
54 | CC(=O)OCC1=C(C(=O)O)N2C(=O)[C@@H](NC(=O)Cc3cccs3)[C@H]2SC1 [cephalothin] | – | sensitivity of Janthinobacterium lividum to antibiotic disc [2]: sensitive
55 | Nc1ncnc2c1ncn2C1CC(O)C(CO)O1 (centres unmarked) [2-Deoxy Adenosine] | 2 to 20 | –
56 | OC[C@H]1O[C@@H]2O[C@H]3[C@H](O)[C@@H](O)[C@@H](O[C@H]4[C@H](O)[C@@H](O)[C@@H](O[C@H]5[C@H](O)[C@@H](O)[C@@H](O[C@H]6[C@H](O)[C@@H](O)[C@@H](O[C@H]7[C@H](O)[C@@H](O)[C@@H](O[C@H]8[C@H](O)[C@@H](O)[C@@H](O[C@H]1[C@H](O)[C@H]2O)O[C@@H]8CO)O[C@@H]7CO)O[C@@H]6CO)O[C@@H]5CO)O[C@@H]4CO)O[C@@H]3CO [β-Cyclodextrin] | 1 to 5 | –
